According to US6656492B2, “Quick disintegrating tablet in buccal cavity and manufacturing method thereof” (Yamanouchi Pharmaceutical Co., Ltd., priority 2000, dated 2003):
Structures can show the parent of a compound that is named as a salt.

Experiment: Fluidity evaluation: angle of repose determination (fixed base cone method)
Assay type: physicochemical
Conditions: for fluidity (judgement in words): fixed base cone method
Text: The term “fluidity” in the present Specification means adhesion and cohesion between particles or adhesion of a particle with a solid wall surface. Said “fluidity” can be put into numerical terms by, for instance, methods of determining the angle of repose of a powder. Methods of determining the angle of repose are known to those in the field, but the fixed base cone method by funnel is an example (for instance, “Yakuzaigaku,” Ryuichi Arita, Hitoshi Sezaki, editors (Kodansha Scientific), p. 182). […] R. L. Jr., Chemical Engineering, Jan. 18, p. 166, Table II, 1965).
[Fluidity evaluation: angle of repose determination] A funnel for pouring powder is placed above a table for determination of the angle of repose. The angle formed by the surface of a layer of accumulated powder and a horizontal plane when the powder is poured so that none remains in the funnel is determined and this angle (°) serves as the angle of repose.

Row | SMILES | fluidity (judgement in words) | angle of repose (determination performed with a vibrator)
1 | Nc1c(Br)cc(Br)cc1CN[C@H]1CC[C@H](O)CC1 [amboxol hydrochloride, ambroxol hydrochloride] | could not be fed by funnel even using the vibrator | –
2 | O=C([O-])[O-].[Ca+2] [calcium carbonate undiluted powder, calcium carbonate] | fluidity was not good | 50 °
3 | NC(N)=Nc1nc(CSCCC(N)=NS(N)(=O)=O)cs1 [famotidine undiluted powder, famotidine] | extremely inferior fluidity | –
